Earlier results in US20240173256A1, “HDL MIMICKING TARGETED DRUG DELIVERY SYSTEM FOR THE TREATMENT OF SOLID TUMORS” (University of North Texas Health Science Center, priority 2022, published 2024).
Read-outs that look alike come from different tables or passages of the source.

What was measured:
[1] = rodents
[2] = patients

| SMILES | Cardiotoxicity [1] | Incidence of congestive heart failure ([2]; 400 mg/m^2) [%] | Incidence of congestive heart failure ([2]; 550 mg/m^2) [%] | Incidence of congestive heart failure ([2]; 700 mg/m^2) [%] |
| --- | --- | --- | --- | --- |
| CCCCC(=O)OCC(=O)[C@]1(O)Cc2c(O)c3c(c(O)c2[C@@H](O[C@H]2C[C@H](NCc4ccccc4)[C@H](O)[C@H](C)O2)C1)C(=O)c1c(OC)cccc1C3=O [AD 198, N-Benzyladriamycin-14-valerate] | no significant cardiotoxicity |  |  |  |
| COc1cccc2c1C(=O)c1c(O)c3c(c(O)c1C2=O)C[C@@](O)(C(=O)CO)C[C@@H]3O[C@H]1C[C@H](N)[C@H](O)[C@H](C)O1 [doxorubicin] | ventricular damage proportionate to dosage | 4.7 | 26 | 48 |
